Values after ≈ are worked out from the molar mass of the structure shown. Where two headings read alike, the source gives them in different places.
Legend:
Experiment in all cases: In vitro antibacterial activity, microtitration dilution method (MIC)
Type in all cases: cell-based
[1] = system: Klebsiella pneumoniae MGH-2; settings: MGH2, read-out: Minimal Inhibitory Concentration (MIC)
Text: (§1) The compounds of the invention display antibacterial activity when tested by the microtitration dilution method as described in Heifetz, et al, Antimicr. Agents & Chemoth., 6, 124 (1974), which is incorporated herein by reference.
(§2) By use of the above referenced method, the followed minimum inhibitory concentration values (MICs in μg/ml) were obtained for representative compounds of the invention.

[2] = system: Streptococcus pyogenes C-203; settings: C203, read-out: Minimal Inhibitory Concentration (MIC)
Text: as §1, §2

[3] = system: Enterobacter cloacae MA 2646; settings: MA2646, read-out: Minimal Inhibitory Concentration (MIC)
Text: as §1, §2

[4] = system: Pseudomonas aeruginosa UI-18; settings: UI18, read-out: Minimal Inhibitory Concentration (MIC)
Text: as §1, §2

[5] = system: Streptococcus pneumoniae SV-1; settings: SV1, read-out: Minimal Inhibitory Concentration (MIC)
Text: as §1, §2

[6] = system: Escherichia coli Vogel; settings: read-out: Minimal Inhibitory Concentration (MIC)
Text: as §1, §2

[7] = system: Proteus rettgeri M 1771; settings: Providencia rettgeri, M1771, read-out: Minimal Inhibitory Concentration (MIC)
Text: as §1, §2

[8] = system: Streptococcus faecalis MGH-2; settings: Enterococcus faecalis
Text: (§3) Agents & Chemoth., 6, 124 (1974), which is incorporated herein by reference.

[9] = system: Staphylococcus aureus H 228
Text: as §3

[10] = system: Staphylococcus aureus UC-76
Text: as §3

[11] = MGH2, Streptococcus faecalis MGH-2, read-out: Minimal Inhibitory Concentration (MIC)
[12] = H228, Staphylococcus aureus H 228, read-out: Minimal Inhibitory Concentration (MIC)
[13] = Staphylococcus aureus, UC76, read-out: Minimal Inhibitory Concentration (MIC)

SMILES | MIC [1] [µg/mL] | MIC [2] [µg/mL] | MIC [3] [µg/mL] | MIC [4] [µg/mL] | MIC [5] [µg/mL] | MIC [6] [µg/mL] | MIC [7] [µg/mL] | MIC [8, 11] [µg/mL] | MIC [9, 12] [µg/mL] | MIC [10, 13] [µg/mL] | MIC ([8]; MGH2, read-out: Minimal Inhibitory Concentration (MIC)) [µg/mL] | MIC ([9]; Staphylococcus aureus, H228, read-out: Minimal Inhibitory Concentration (MIC)) [µg/mL] | MIC ([10]; UC76, Staphylococcus aureus UC-76, read-out: Minimal Inhibitory Concentration (MIC)) [µg/mL]
CCNCC1CCN(c2c(F)cc3c(=O)c(C(=O)O)cn(NC)c3c2F)C1 (stereo not shown) [Ex. 3, 7-[3-[(Ethylamino)methyl]-1-pyrrolidinyl]-6,8-difluoro-1,4-dihydro-1-methylamino-4-oxo-3-quinolinecarboxylic acid] | 0.2 (≈ 0.526 µM) | 0.2 (≈ 0.526 µM) | 0.2 (≈ 0.526 µM) | 0.8 (≈ 2.1 µM) | 0.1 (≈ 0.263 µM) | 0.2 (≈ 0.526 µM) | 1.6 (≈ 4.21 µM) | 0.4 (≈ 1.05 µM) | 0.4 (≈ 1.05 µM) | 0.2 (≈ 0.526 µM) |  |  | 
CCNCC1CCN(c2cc3c(cc2F)c(=O)c(C(=O)O)cn3NC)C1 (stereo not shown) [Ex. 1, 7-[3-[(Ethylamino)methyl]-1-pyrrolidinyl]-6-fluoro-1-methylamino-1,4-dihydro-4-oxo-3-quinolinecarboxylic Acid] | 6.3 (≈ 17.4 µM) | 0.4 (≈ 1.1 µM) | 6.3 (≈ 17.4 µM) | 25 (≈ 69 µM) | 3.1 (≈ 8.55 µM) | 12.5 (≈ 34.5 µM) | 25 (≈ 69 µM) | 6.3 (≈ 17.4 µM) | 12.5 (≈ 34.5 µM) | 0.2 (≈ 0.552 µM) |  |  | 
CNn1cc(C(=O)O)c(=O)c2cc(F)c(N3CCC(CN)C3)c(F)c21 (stereo not shown) [Ex. 4, 7-[3-(Aminomethyl)-1-pyrrolidinyl]-6,8-difluoro-1,4-dihydro-1-methylamino-4-oxo-3-quinolinecarboxylic acid] | 1.6 (≈ 4.54 µM) | 0.2 (≈ 0.568 µM) | 1.6 (≈ 4.54 µM) | 1.6 (≈ 4.54 µM) | 0.8 (≈ 2.27 µM) | 1.6 (≈ 4.54 µM) | 1.6 (≈ 4.54 µM) |  | 1.6 (≈ 4.54 µM) | 0.2 (≈ 0.568 µM) | 0.8 (≈ 2.27 µM) |  | 
CNn1cc(C(=O)O)c(=O)c2cc(F)c(N3CCC(N)C3)c(F)c21 (stereo not shown) [Ex. 2, 7-(3-Amino-1-pyrrolidinyl)-6,8-difluoro-1,4-dihydro-1-methylamino-4-oxo-3-quinolinecarboxylic Acid] | 0.2 (≈ 0.591 µM) | 0.8 (≈ 2.36 µM) | 0.8 (≈ 2.36 µM) | 0.2 (≈ 0.591 µM) | 6.3 (≈ 18.6 µM) | 0.2 (≈ 0.591 µM) | 0.4 (≈ 1.18 µM) | 12.5 (≈ 36.9 µM) |  |  |  | 3.1 (≈ 9.16 µM) | 0.4 (≈ 1.18 µM)

Reference: US4604401A, “Antibacterial agents III” (Warner-Lambert Company, priority 1984, dated 1986)
